BigSolDB 2.1

COc1cccc(CCc2ccccc2OCC(CN(C)C)OC(=O)CCC(=O)O)c1.Cl (stereo not given)
solubility (mole fraction)
Settings | in THF | in acetone | in acetonitrile | in ethanol | in isopropanol | in methanol | in n-butanol | in n-propanol
288.15 K | 2.24e-05 | 4.85e-05 | 9.78e-05 | 0.00168 | 4.48e-05 | 0.00376 | 0.00011 | 0.000171
293.15 K | 3.25e-05 | 7.84e-05 | 0.000141 | 0.00211 | 8.24e-05 | 0.00493 | 0.000146 | 0.000262
298.15 K | 4.28e-05 | 0.000106 | 0.000171 | 0.00278 | 0.00011 | 0.00653 | 0.00019 | 0.000354
303.15 K | 7.01e-05 | 0.000193 | 0.000239 | 0.00345 | 0.000144 | 0.00856 | 0.000294 | 0.000504
308.15 K | 9.92e-05 | 0.000275 | 0.000313 | 0.00476 | 0.000186 | 0.0116 | 0.000412 | 0.000698
